Laboratory results as given in ChEMBL document CHEMBL3046429, “Synthesis, molecular modeling study, preliminary antibacterial, and antitumor evaluation of N-substituted naphthalimides and their structural analogues” (2013).
Values after ≈ are worked out from the molar mass of the structure shown.

Tests used:
Type in all cases: functional
[1] = tested on: HL-60(TB); experiment: Growth inhibition of Homo sapiens (human) HL-60(TB) cells at 10 uM after 48 hr by coulter counter analysis; settings: HL-60, 48 h, read-out: GI
[2] = tested on: OVCAR-5; experiment: Growth inhibition of Homo sapiens (human) OVCAR5 cells at 10 uM after 48 hr by coulter counter analysis; settings: OVCAR-5, 48 h, read-out: GI
[3] = tested on: NCI-H226; experiment: Growth inhibition of Homo sapiens (human) NCI-H226 cells at 10 uM after 48 hr by coulter counter analysis; settings: NCI-H226, 48 h, read-out: GI
[4] = tested on: Escherichia coli; experiment: Antibacterial activity against Escherichia coli assessed as growth inhibition after 24 hr by two-fold serial dilution method
[5] = tested on: RPMI-8226; experiment: Growth inhibition of Homo sapiens (human) RPMI8226 cells at 10 uM after 48 hr by coulter counter analysis; settings: RPMI-8226, 48 h, read-out: GI
[6] = tested on: Hs-578T; experiment: Growth inhibition of Homo sapiens (human) Hs 578T cells at 10 uM after 48 hr by coulter counter analysis; settings: read-out: GI
[7] = tested on: SN12C; experiment: Growth inhibition of Homo sapiens (human) SN12C cells at 10 uM after 48 hr by coulter counter analysis; settings: read-out: GI
[8] = tested on: DU-145; experiment: Growth inhibition of Homo sapiens (human) DU145 cells at 10 uM after 48 hr by coulter counter analysis; settings: DU-145, 48 h, read-out: GI
[9] = tested on: RXF 393; experiment: Growth inhibition of Homo sapiens (human) RXF393 cells at 10 uM after 48 hr by coulter counter analysis; settings: RXF 393, 48 h, read-out: GI
[10] = tested on: KM12; experiment: Growth inhibition of Homo sapiens (human) KM12 cells at 10 uM after 48 hr by coulter counter analysis; settings: KM12, 48 h, read-out: GI
[11] = tested on: HCT-116; experiment: Growth inhibition of Homo sapiens (human) HCT116 cells at 10 uM after 48 hr by coulter counter analysis; settings: HCT-116, 48 h, read-out: GI
[12] = tested on: LOX IMVI; experiment: Growth inhibition of Homo sapiens (human) LOXIMVI cells at 10 uM after 48 hr by coulter counter analysis; settings: read-out: GI
[13] = tested on: T47D; experiment: Growth inhibition of Homo sapiens (human) T47D cells at 10 uM after 48 hr by coulter counter analysis; settings: read-out: GI
[14] = tested on: COLO 205; experiment: Growth inhibition of Homo sapiens (human) COLO205 cells at 10 uM after 48 hr by coulter counter analysis; settings: COLO 205, 48 h, read-out: GI
[15] = tested on: NCI-H460; experiment: Growth inhibition of Homo sapiens (human) NCI-H460 cells at 10 uM after 48 hr by coulter counter analysis; settings: NCI-H460, 48 h, read-out: GI
[16] = tested on: A498; experiment: Growth inhibition of Homo sapiens (human) A498 cells at 10 uM after 48 hr by coulter counter analysis; settings: A498, 48 h, read-out: GI
[17] = tested on: SF-539; experiment: Growth inhibition of Homo sapiens (human) SF539 cells at 10 uM after 48 hr by coulter counter analysis; settings: SF-539, 48 h, read-out: GI
[18] = tested on: SF-295; experiment: Growth inhibition of Homo sapiens (human) SF295 cells at 10 uM after 48 hr by coulter counter analysis; settings: SF-295, 48 h, read-out: GI
[19] = tested on: HCT-15; experiment: Growth inhibition of Homo sapiens (human) HCT15 cells at 10 uM after 48 hr by coulter counter analysis; settings: HCT-15, 48 h, read-out: GI
[20] = tested on: A549; experiment: Growth inhibition of Homo sapiens (human) A549/ATCC cells at 10 uM after 48 hr by coulter counter analysis; settings: A549, 48 h, read-out: GI
[21] = tested on: M14; experiment: Growth inhibition of Homo sapiens (human) M14 cells at 10 uM after 48 hr by coulter counter analysis; settings: M14, 48 h, read-out: GI
[22] = tested on: Malme-3M; experiment: Growth inhibition of Homo sapiens (human) MALME-3M cells at 10 uM after 48 hr by coulter counter analysis; settings: read-out: GI
[23] = tested on: HOP-92; experiment: Growth inhibition of Homo sapiens (human) HOP92 cells at 10 uM after 48 hr by coulter counter analysis; settings: HOP-92, 48 h, read-out: GI
[24] = tested on: IGROV-1; experiment: Growth inhibition of Homo sapiens (human) IGROV1 cells at 10 uM after 48 hr by coulter counter analysis; settings: IGROV-1, 48 h, read-out: GI
[25] = tested on: K562; experiment: Growth inhibition of Homo sapiens (human) K562 cells at 10 uM after 48 hr by coulter counter analysis; settings: K562, 48 h, read-out: GI
[26] = tested on: SK-MEL-28; experiment: Growth inhibition of Homo sapiens (human) SK-MEL-28 cells at 10 uM after 48 hr by coulter counter analysis; settings: SK-MEL-28, 48 h, read-out: GI
[27] = tested on: SW-620; experiment: Growth inhibition of Homo sapiens (human) SW620 cells at 10 uM after 48 hr by coulter counter analysis; settings: SW-620, 48 h, read-out: GI
[28] = tested on: OVCAR-3; experiment: Growth inhibition of Homo sapiens (human) OVCAR3 cells at 10 uM after 48 hr by coulter counter analysis; settings: OVCAR-3, 48 h, read-out: GI
[29] = tested on: NCI-H522; experiment: Growth inhibition of Homo sapiens (human) NCI-H522 cells at 10 uM after 48 hr by coulter counter analysis; settings: NCI-H522, 48 h, read-out: GI
[30] = tested on: SF-268; experiment: Growth inhibition of Homo sapiens (human) SF268 cells at 10 uM after 48 hr by coulter counter analysis; settings: SF-268, 48 h, read-out: GI
[31] = tested on: UO-31; experiment: Growth inhibition of Homo sapiens (human) UO31 cells at 10 uM after 48 hr by coulter counter analysis; settings: UO-31, 48 h, read-out: GI
[32] = tested on: CAKI-1; experiment: Growth inhibition of Homo sapiens (human) CAKI-1 cells at 10 uM after 48 hr by coulter counter analysis; settings: CAKI-1, 48 h, read-out: GI
[33] = tested on: SK-OV-3; experiment: Growth inhibition of Homo sapiens (human) SKOV3 cells at 10 uM after 48 hr by coulter counter analysis; settings: SK-OV-3, 48 h, read-out: GI
[34] = tested on: SK-MEL-2; experiment: Growth inhibition of Homo sapiens (human) SK-MEL-2 cells at 10 uM after 48 hr by coulter counter analysis; settings: SK-MEL-2, 48 h, read-out: GI
[35] = tested on: ACHN; experiment: Growth inhibition of Homo sapiens (human) ACHN cells at 10 uM after 48 hr by coulter counter analysis; settings: read-out: GI
[36] = tested on: CCRF-CEM; experiment: Growth inhibition of Homo sapiens (human) CCRF-CEM cells at 10 uM after 48 hr by coulter counter analysis; settings: read-out: GI
[37] = tested on: MOLT-4; experiment: Growth inhibition of Homo sapiens (human) MOLT4 cells at 10 uM after 48 hr by coulter counter analysis; settings: MOLT-4, 48 h, read-out: GI

O=C1c2nccnc2C(=O)N1c1c(Cl)cc(Cl)cc1Cl
inhibition of growth at 10 µM [1]: 1.42%
inhibition of growth at 10 µM [2]: -1.7%
inhibition of growth at 10 µM [3]: 9.41%
-logMIC [4]: 4.68
MIC ([4]; Escherichia coli, 24 h): 6.9 µg/mL (≈ 21 µM)
inhibition of growth at 10 µM [5]: 4.32%
inhibition of growth at 10 µM [6]: 15.3%
inhibition of growth at 10 µM [7]: 22.7%
inhibition of growth at 10 µM [8]: 18.6%
inhibition of growth at 10 µM [9]: -25.2%
inhibition of growth at 10 µM [10]: 10.3%
inhibition of growth at 10 µM [11]: 1.17%
inhibition of growth at 10 µM [12]: -0.26%
inhibition of growth at 10 µM [13]: 5.37%
inhibition of growth at 10 µM [14]: 8.27%
inhibition of growth at 10 µM [15]: -7.91%
inhibition of growth at 10 µM [16]: 20.9%
inhibition of growth at 10 µM [17]: 8.66%
inhibition of growth at 10 µM [18]: -2.42%
inhibition of growth at 10 µM [19]: 7.09%
inhibition of growth at 10 µM [20]: -11.7%
inhibition of growth at 10 µM [21]: 3.32%
inhibition of growth at 10 µM [22]: 21.1%
inhibition of growth at 10 µM [23]: 57.1%
inhibition of growth at 10 µM [24]: 7.24%
inhibition of growth at 10 µM [25]: 10.1%
inhibition of growth at 10 µM [26]: -3.36%
inhibition of growth at 10 µM [27]: -7.54%
inhibition of growth at 10 µM [28]: -15.4%
inhibition of growth at 10 µM [29]: 14.9%
inhibition of growth at 10 µM [30]: 7.64%
inhibition of growth at 10 µM [31]: 72.9%
inhibition of growth at 10 µM [32]: 18%
inhibition of growth at 10 µM [33]: 4.55%
inhibition of growth at 10 µM [34]: -0.16%
inhibition of growth at 10 µM [35]: -0.27%
inhibition of growth at 10 µM [36]: 3.38%
inhibition of growth at 10 µM [37]: 1.21%
